According to PMC9969023 (European Journal of Nuclear Medicine and Molecular Imaging, 2023):

Substance: ^18F-FDG
- SUVmax of paratracheal enlarged lymph nodes (patient 2, PET/MR): 21.50
- SUVmax of thickened esophagus (patient 2, PET/MR, 3.7 MBq/kg, 50 to 70 min P.I.): 28.24
- SUVmax of lung nodule (patient 2, PET/MR, nodule in left lung lower lobe): 1.60
- uptake in peritoneal nodules (patient 3, peritoneal metastases, result in words): mild increased uptake
